Data: US20170196998A1, “NANOPARTICLE CONTRAST AGENT FOR EARLY DIAGNOSIS OF ALZHEIMER'S DISEASE BY MAGNETIC RESONANCE IMAGING (MRI)” (The Chinese University of Hong Kong, priority 2016, published 2017)

What was measured:
amyloid plaques = amyloid plaques (Homo sapiens, UniProt P05067); experiment: Confocal fluorescent and phase-contrast imaging of amyloid plaque binding on consecutive brain sections; conditions: applied to consecutive sections of APP transgenic mouse brain, FIG. 5
Description: From top to bottom: Thioflavin T, curcumin, and curcumin-conjugated iron oxide.
The formulation of Curcumin-conjugated magnetic nanoparticles is described herein.

[1] = Adsorption isotherm of curcumin on iron oxide (Langmuir model); type: physicochemical; conditions: room temperature, monolayer
Protocol: Based on the absorption isotherm study, curcumin preferentially binds the iron oxide surface, with a calculated maximum loading of 75 mg of curcumin per gram of iron oxide. FIGS. 2 & 3 show the adsorption isotherm and Langmuir model, which indicate that Curcumin is forming a monolayer and binds at a homogeneous site on the iron oxide surface.

Chain of amyloid plaques (P05067 672-713 limits assumed): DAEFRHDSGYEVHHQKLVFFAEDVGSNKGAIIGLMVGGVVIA

SMILES	amyloid plaque binding (amyloid plaques)	calculated maximum loading of curcumin on iron oxide [1]
Cc1ccc2c(c1)sc(-c1ccc(N(C)C)cc1)[n+]2C.[Cl-] [Thioflavin T]	bind amyloid plaques	
COc1cc(/C=C/C(=O)CC(=O)/C=C/c2ccc(O)c(OC)c2)ccc1O [curcumin]	bind amyloid plaques	75 mg of curcumin per gram of iron oxide
